According to PubChem BioAssay AID2060509 (Molecular Pharmacology Branch, DTP, NCI, 2025):

System: 485176-168-R4-J1-PDC spheroids with HUVEC/MSC, viability
Assay: Anticancer human tumor 485176-168-R4-J1-PDC patient-derived pancreatic adenocarcinoma cell line growth inhibition [GQUAD]
Conditions: for IC50: curve of first compound; for viability, T/C: stronger effect = lower value
Method in brief: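 Tumor cells were grown as complex spheroids with HUVEC endothelial cells and mesenchymal stem cells as stroma. G-quadruplex stabilizers were combined with targeted agents over half-log dilutions from near the clinical Cmax, or from 10 microM.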

[1] = second compound 0.0316 µM, first compound 0.0316 µM
[2] = second compound 0.0316 µM, first compound 0.1 µM
[3] = second compound 0.0316 µM, first compound 0.316 µM
[4] = second compound 0.0316 µM, first compound 1 µM
[5] = second compound 0.0316 µM, first compound 3.16 µM
[6] = second compound 0.0316 µM, first compound 10 µM
[7] = second compound 0.1 µM, first compound 0.0316 µM
[8] = second compound 0.1 µM, first compound 0.1 µM
[9] = second compound 0.1 µM, first compound 0.316 µM
[10] = second compound 0.1 µM, first compound 1 µM
[11] = second compound 0.1 µM, first compound 3.16 µM
[12] = second compound 0.1 µM, first compound 10 µM
[13] = second compound 0.316 µM, first compound 0.0316 µM
[14] = second compound 0.316 µM, first compound 0.1 µM
[15] = second compound 0.316 µM, first compound 0.316 µM
[16] = second compound 0.316 µM, first compound 1 µM
[17] = second compound 0.316 µM, first compound 3.16 µM
[18] = second compound 0.316 µM, first compound 10 µM
[19] = second compound 1 µM, first compound 0.0316 µM
[20] = second compound 1 µM, first compound 0.1 µM
[21] = second compound 1 µM, first compound 0.316 µM
[22] = second compound 1 µM, first compound 1 µM
[23] = second compound 1 µM, first compound 3.16 µM
[24] = second compound 1 µM, first compound 10 µM
[25] = second compound 3.16 µM, first compound 0.0316 µM
[26] = second compound 3.16 µM, first compound 0.1 µM
[27] = second compound 3.16 µM, first compound 0.316 µM
[28] = second compound 3.16 µM, first compound 1 µM
[29] = second compound 3.16 µM, first compound 3.16 µM
[30] = second compound 3.16 µM, first compound 10 µM
[31] = second compound 10 µM, first compound 0.0316 µM
[32] = second compound 10 µM, first compound 0.1 µM
[33] = second compound 10 µM, first compound 0.316 µM
[34] = second compound 10 µM, first compound 1 µM
[35] = second compound 10 µM, first compound 3.16 µM
[36] = second compound 10 µM, first compound 10 µM
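Further: spheroids exposed to compounds for seven days before readout.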
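Wherever viability, T/C is given: percent viability relative to DMSO vehicle control wells as 100%.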

Nc1ccn(C2OC(CO)C(O)C2(F)F)c(=O)n1 (stereo not drawn) + Cc1[nH]c2ccc(F)cc2c1-c1nc2c3cccnc3c3ncccc3c2[nH]1
IC50 (second compound 0.0316 µM): 50.5 nM | IC50 (second compound 0.1 µM): 40 nM | IC50 (second compound 0.316 µM): 42.1 nM | IC50 (second compound 1 µM): 54.1 nM | IC50 (second compound 3.16 µM): 54.4 nM | IC50 (second compound 10 µM): 57.4 nM | viability, T/C [1]: 71.8% | viability, T/C [2]: 18.2% | viability, T/C [3]: 10.3% | viability, T/C [4]: 9.1% | viability, T/C [5]: 11.2% | viability, T/C [6]: 10.4% | viability, T/C [7]: 56.6% | viability, T/C [8]: 24.9% | viability, T/C [9]: 9.79% | viability, T/C [10]: 9.89% | viability, T/C [11]: 11.8% | viability, T/C [12]: 9.87% | viability, T/C [13]: 58% | viability, T/C [14]: 25.7% | viability, T/C [15]: 12% | viability, T/C [16]: 10.1% | viability, T/C [17]: 9.86% | viability, T/C [18]: 11.9% | viability, T/C [19]: 71.3% | viability, T/C [20]: 25.6% | viability, T/C [21]: 9.77% | viability, T/C [22]: 10.7% | viability, T/C [23]: 12.2% | viability, T/C [24]: 12.2% | viability, T/C [25]: 69.7% | viability, T/C [26]: 27.8% | viability, T/C [27]: 10.8% | viability, T/C [28]: 12.1% | viability, T/C [29]: 11.2% | viability, T/C [30]: 13.9% | viability, T/C [31]: 71.8% | viability, T/C [32]: 29.8% | viability, T/C [33]: 10.8% | viability, T/C [34]: 10.4% | viability, T/C [35]: 10.2% | viability, T/C [36]: 10.8%

COc1ncnc(C2CC2)c1-c1ncc2cnn(Cc3ccc(-c4nc(C(F)(F)F)cn4C(C)C)cc3)c2n1 + CN(C)c1ccc(Nc2c3ccc(NC(=O)CCN4CCCC4)cc3nc3cc(NC(=O)CCN4CCCC4)ccc23)cc1
IC50 (second compound 0.0316 µM): > 10000 nM | IC50 (second compound 0.1 µM): > 10000 nM | IC50 (second compound 0.316 µM): > 10000 nM | IC50 (second compound 1 µM): > 10000 nM | IC50 (second compound 3.16 µM): > 10000 nM | IC50 (second compound 10 µM): > 10000 nM | viability, T/C [1]: 86.9% | viability, T/C [2]: 83.5% | viability, T/C [3]: 109% | viability, T/C [4]: 107% | viability, T/C [5]: 97.8% | viability, T/C [6]: 94.3% | viability, T/C [7]: 123% | viability, T/C [8]: 95.2% | viability, T/C [9]: 106% | viability, T/C [10]: 93.3% | viability, T/C [11]: 104% | viability, T/C [12]: 89.5% | viability, T/C [13]: 96.3% | viability, T/C [14]: 95.5% | viability, T/C [15]: 103% | viability, T/C [16]: 96% | viability, T/C [17]: 87.4% | viability, T/C [18]: 98% | viability, T/C [19]: 88.1% | viability, T/C [20]: 97.1% | viability, T/C [21]: 105% | viability, T/C [22]: 74.3% | viability, T/C [23]: 99.9% | viability, T/C [24]: 83.3% | viability, T/C [25]: 94.3% | viability, T/C [26]: 96.8% | viability, T/C [27]: 87.9% | viability, T/C [28]: 102% | viability, T/C [29]: 92.5% | viability, T/C [30]: 88.1% | viability, T/C [31]: 90.5% | viability, T/C [32]: 81.2% | viability, T/C [33]: 86.8% | viability, T/C [34]: 86.8% | viability, T/C [35]: 72.4% | viability, T/C [36]: 70.2%

CC1COCCN1c1cc(C2(S(C)(=N)=O)CC2)nc(-c2ccnc3[nH]ccc23)n1 (stereo not drawn) + Cc1cnc(CNC(=O)c2c(=O)c3ccc(N4CCCN(C)CC4)nc3n3c2sc2ccccc23)cn1
IC50 (second compound 0.0316 µM): 2310 nM | IC50 (second compound 0.1 µM): 1010 nM | IC50 (second compound 0.316 µM): 196 nM | IC50 (second compound 1 µM): 53.5 nM | IC50 (second compound 3.16 µM): < 31.6 nM | IC50 (second compound 10 µM): < 31.6 nM | viability, T/C [1]: 96.4% | viability, T/C [2]: 82.9% | viability, T/C [3]: 89.2% | viability, T/C [4]: 44.8% | viability, T/C [5]: 59% | viability, T/C [6]: 15.1% | viability, T/C [7]: 73.8% | viability, T/C [8]: 82.6% | viability, T/C [9]: 53.6% | viability, T/C [10]: 39.7% | viability, T/C [11]: 51% | viability, T/C [12]: 12.1% | viability, T/C [13]: 54% | viability, T/C [14]: 62.7% | viability, T/C [15]: 47.2% | viability, T/C [16]: 28.2% | viability, T/C [17]: 36.4% | viability, T/C [18]: 11.9% | viability, T/C [19]: 50.3% | viability, T/C [20]: 51.5% | viability, T/C [21]: 41.6% | viability, T/C [22]: 28.9% | viability, T/C [23]: 36.8% | viability, T/C [24]: 11.9% | viability, T/C [25]: 45.8% | viability, T/C [26]: 41.6% | viability, T/C [27]: 38.5% | viability, T/C [28]: 23.9% | viability, T/C [29]: 28.7% | viability, T/C [30]: 11% | viability, T/C [31]: 41.4% | viability, T/C [32]: 36.7% | viability, T/C [33]: 37.1% | viability, T/C [34]: 27.5% | viability, T/C [35]: 28.1% | viability, T/C [36]: 12.8%

C#Cc1c(F)ccc2cc(O)cc(-c3ncc4c(N5CC6CCC(C5)N6)nc(OCC56CCCN5CC(F)C6)nc4c3F)c12 (stereo not drawn) + Cc1cnc(CNC(=O)c2c(=O)c3ccc(N4CCCN(C)CC4)nc3n3c2sc2ccccc23)cn1
IC50 (second compound 0.0316 µM): > 10000 nM | IC50 (second compound 0.1 µM): > 10000 nM | IC50 (second compound 0.316 µM): > 10000 nM | IC50 (second compound 1 µM): < 31.6 nM | IC50 (second compound 3.16 µM): < 31.6 nM | IC50 (second compound 10 µM): < 31.6 nM | viability, T/C [1]: 97% | viability, T/C [2]: 89.9% | viability, T/C [3]: 97.7% | viability, T/C [4]: 81% | viability, T/C [5]: 91.9% | viability, T/C [6]: 87.8% | viability, T/C [7]: 78.4% | viability, T/C [8]: 80% | viability, T/C [9]: 68.4% | viability, T/C [10]: 72.3% | viability, T/C [11]: 72.8% | viability, T/C [12]: 76.3% | viability, T/C [13]: 59.3% | viability, T/C [14]: 60% | viability, T/C [15]: 62.3% | viability, T/C [16]: 61.6% | viability, T/C [17]: 63.3% | viability, T/C [18]: 50.9% | viability, T/C [19]: 45.2% | viability, T/C [20]: 50.1% | viability, T/C [21]: 48.6% | viability, T/C [22]: 50.3% | viability, T/C [23]: 45.7% | viability, T/C [24]: 50.5% | viability, T/C [25]: 44% | viability, T/C [26]: 44.7% | viability, T/C [27]: 44.4% | viability, T/C [28]: 38.1% | viability, T/C [29]: 48.7% | viability, T/C [30]: 44.6% | viability, T/C [31]: 40.5% | viability, T/C [32]: 40.4% | viability, T/C [33]: 36.4% | viability, T/C [34]: 35.1% | viability, T/C [35]: 37.5% | viability, T/C [36]: 37.4%
